Here are results for 1 compound from paper PMC9820430, “New Affordable Methods for Large-Scale Isolation of Major Olive Secoiridoids and Systematic Comparative Study of Their Antiproliferative/Cytotoxic Effect on Multiple Cancer Cell Lines of Different Cancer Origins” (International Journal of Molecular Sciences, 2022).

The subject of data set [1] is sixteen human cancer cell lines originating from eight different tissues. The data set is described as follows: ATP-based luminescence cell viability assay, whole panel. The method, then:
(§1) The antiproliferative/cytotoxic effects of the selected OOPs on each cell line were assessed by measuring the cellular ATP levels after 72 h treatments using an ATP-based luminescence assay. This assay, initially developed as a tumor chemosensitivity assay, has shown considerable promise as a general in vitro toxicity assay due to its high sensitivity that allows the detection of a small number of cells. Consequently, it can be applied to both cancer cell lines and primary tissue cells. […] The EC50 values were calculated by nonlinear regression (curve fit) using a sigmoidal dose–response equation (Figure 2A and Figure S2).
(§2) The OOPs tested in this study were first dissolved in an appropriate DMSO volume such as to prepare a final stock solution of 50 mM, which was further used to prepare various compound concentrations in DMSO-based solutions. The final DMSO concentration in the cell culture was maintained constant in all treated groups of any given experiment and never exceeded the value of 0.2% (v/v). For the treatment experiments, cells were plated in 96-well culture plates, in 100 μL of complete medium at a seeding density of 5000–10,000 cells/well—depending on cells’ size and doubling time—and were allowed to adhere overnight (~16 h). The next day, 150 μL of complete medium was added to each well and the cells were treated with various concentrations of OOPs. Each concentration was tested in triplicate and was repeated 2–3 times. To prepare the final concentration solutions, 0.5 μL of a 500× stock of each tested compound in DMSO was added directly into each well in a final volume of 250 μL culture medium and was gently mixed by pipetting. Control wells were prepared under the same experimental conditions by adding only DMSO at a final concentration of 0.2% (v/v). Compounds were not renewed during the entire period of cell exposure. All cells were cultured at 37 °C in a 5% (v/v) CO2 for 24, 48 or 72 h.
(§3) Briefly, after the treatment with OOPs, the adapted medium was removed from the dish wells and the cells were washed twice with medium without FBS. Then, the C-lysis (LT27-076) was diluted in PBS (1:2) and a volume of 50 μL was added to each well. Cells were incubated with C-lysis for at least 10 min. Finally, an equal volume of lysed cells from each well and ATP monitoring reagent (AMR; LT27-212) was transferred to the wells of a white-walled illuminometer plate (Greiner bio-one; 655074). Cell viability was quantified by measuring luminescence using a multi-mode microplate reader Safire^2 Tecan (software Magellan V6.00 STD.2PC WIN.20000/XP).

The subject of a further data set is SK-BR-3. The data set is described as follows: ATP-based luminescence cell viability assay (ViaLight), 72 h. Set-up: species or system human. The settings on record: Homo sapiens, SK-BR-3, 72 h, SK-BR-3; 72 h treatment; read-out: EC50 Values of Olive Oil Polyphenols. How it is done:
as §1, §2, §3

A further data set relates to MCF-7. Described as above. Set-up: species or system human. As to conditions: Homo sapiens, MCF7, 72 h, 72 h treatment, read-out: EC50 Values of Olive Oil Polyphenols. The method, then: as §1, §2, §3
A further data set concerns MDA-MB 231. Described as above. Set-up: species or system human. The settings on record: Homo sapiens, MDA-MB-231, 72 h, MDA-MB 231; 72 h treatment; read-out: EC50 Values of Olive Oil Polyphenols. How it is done:
as §1, §2, §3

Data set [2] deals with three breast cancer cell lines (MDA-MB-231, SK-BR-3 and MCF-7). In words: ATP-based luminescence cell viability assay, breast panel. Set-up: species or system human. How it is done: as §1
The calculated EC50 values ranged between 9.1–100 μΜ (Table 1). The bioactivity of the oleocanthalic acid (7), studied here for the first time for its antiproliferative/cytotoxic activity, was initially evaluated systematically in the three breast cancer cell lines using a concentration range of 10–100 μM. In all cases, the viability measured was ≥80%, predicting EC50 values > 100 μΜ. […] For this reason, oleocanthalic acid (7) was excluded from the rest of this study.
as §2
Briefly, after the treatment with OOPs, the adapted medium was removed from the dish wells and the cells were washed twice with medium without FBS. Then, the C-lysis (LT27-076) was diluted in PBS (1:2) and a volume of 50 μL was added to each well. […] Cell viability was quantified by measuring luminescence using a multi-mode microplate reader Safire^2 Tecan (software Magellan V6.00 STD.2PC WIN.20000/XP).

The term EC50 denotes the concentration at which the effect is half-maximal.

For `C/C=C(/C=O)[C@@H](CC(=O)O)CC(=O)OCCc1ccc(O)cc1` [compound 7, oleocanthalic acid], the “Bioactivity range on cancer cell lines (grade in words)” value in data set [1] (Figure 3, sixteen cancer cell lines) is recorded as “Low activity”. The EC50 in data set [1] (Homo sapiens, 72 h treatment, range across cancer cell lines, read-out: EC50, range over the cancer cell lines) is > 100 µM; with SK-BR-3, > 100 µM; in the data set on MCF-7 it was > 100 µM; in the data set with MDA-MB 231, > 100 µM; in data set [2] (Homo sapiens, MDA-MB-231, SK-BR-3 and MCF-7, 72 h) it was > 100 µM. Moreover, the viability measured in data set [2] (three breast cancer cell lines, concentration range of 10–100 μM) is recorded as ≥ 80%.
